We go through 1 compound from US20180021270A1, “METHODS FOR THE TREATMENT OF CANCER USING COENZYME Q10 IN COMBINATION WITH IMMUNE CHECKPOINT MODULATORS” (Berg LLC, priority 2016, published 2018).

In data set [1] the test system is B16F10 skin melanoma cells. Put plainly: Cell viability (CellTiter-Fluor) of mouse syngeneic tumor cell line. Type of data set: cell-based. The note with it: B16F10, 72 hours, 37° C. As to the method: (§1) The sensitivity of mouse syngeneic tumor cell lines to Coenzyme Q10 was evaluated in vitro. Six mouse syngeneic tumor cell lines from different tissue types were exposed to increasing concentrations of Coenzyme Q10 (0-25 mM) at 37° C. for 72 hours. Cell viability was measured using CellTiter-Fluor kit (Promega, Madison, Wis.). Graphs and IC50 values were calculated using GraphPad Prism using data for at least three independent experiments. Mouse syngeneic tumor cell lines evaluated were Lewis lung carcinoma (LL2), hepatoma (Hepa1-6) skin melanoma (B16F10), colon cancer (CT26), mammary gland adenocarcinoma (EMT6/P), and renal adenocarcinoma (Renca). As shown in FIGS. 24A-24F, Coenzyme Q10 reduced viability of all of the tumor cell lines in a dose dependent manner.

The next data set relates to CT26 colon cancer cells. The description is as above. Type of data set: cell-based. The note with it: CT26, 72 hours, 37° C. As to the method: as §1
The test system of data set [2] is LL/2 Lewis lung carcinoma cells. The description is as above. Type of data set: cell-based. The note with it: LL/2, 72 hours, 37° C. The method, then: as §1
In a further data set the test system is human PBMCs (T cells). Description: Viability of immune cell subpopulations within PBMCs (Annexin V/7 AAD flow cytometry). It counts as cell-based. The note with it: 0-800 μM Coenzyme Q10, 24 hours, PHA-stimulated or unstimulated PBMCs. As to the method:
PBMCs isolated from healthy human donor leukopaks were isolated and cryopreserved. To study the effect of Coenzyme Q10, cells were thawed, rested overnight and treated with or without phytohemagglutinin (PHA). PHA is a lectin protein found in plants which activates T cells by inducing mitosis. Various concentrations of Coenzyme Q10 (0, 12.5, 50, 200, 400 or 800 μM) were added to the cells at the same time. 24 hours to 72 hours post-treatment, frequency and viability of immune cell subpopulations was evaluated, as well as proliferative potential, cytokine secretion, and inhibitory receptor surface expression.
The viability of human immune cell subpopulations within PHA-stimulated or unstimulated PBMCs concurrently treated with Coenzyme Q10 was also determined. Cells were treated with 0, 12.5, 50, 200, 400 or 800 μM Coenzyme Q10 for 24 hours. Cell populations and viability was determined by flow cytometry using combinational staining of surface markers using Annexin V/7 AAD stains. Cells from 5 healthy donors were evaluated. Total, cytotoxic and helper T cell viability after treatment with increasing Coenzyme Q10 concentrations show T cell viability increased in response to Coenzyme Q10. FIG. 17A. […]
(In general: In flow cytometry, cells or beads pass a laser one at a time.)

Another data set has as its system murine Balb/c PBMCs. Description: Frequency of PD-1 expressing cells within murine PBMCs. Type of data set: cell-based, mouse. To be noted: 0-800 μM, 24 hours, dose dependent, unstimulated and PHA-stimulated cells. The method, then: The frequency of PD-1 expressing cells within PHA-stimulated or unstimulated murine Balb/c PBMCs was also evaluated. Cells were concurrently treated with Coenzyme Q10 (0, 12.5, 50, 200, 400 or 800 μM) for 24 hours and evaluated by flow cytometry using surface marker antibody for αCD3 and viability stains Annexin V/7AAD. Viable cells were identified by plotting Annexin V vs. 7 AAD, and gated viable cells were subjected to CD3 vs. PD-1 staining. Two experiments using two different pools of Balb/c PBMCs and one experiment using C57B1/6 PBMCs were conducted.

The test system of data set [3] is breast (MDA-MB231), prostate (LnCAP), ovarian (SKOV-3), colon (HT29), lung (A549), liver (Huh-7), and pancreatic (MIA PaCa-2) cancer cells. Description: mRNA expression of PD1, PD-L1 and PD-L2 in cancer cells treated with Coenzyme Q10 (other treatment groups). It counts as cell-based, human. The note with it: 50 μM, 100 μM or IC50 of Coenzyme Q10; all groups other than PD-L1 in HT29 at 50 μM. As to the method: Levels of mRNA expression of the immune checkpoints PD1, PD-L1 and PD-L2 were determined in human breast (MDA-MB231), prostate (LnCAP), ovarian (SKOV-3), colon (HT29), lung (A549), liver (Huh-7), and pancreatic (MIA PaCa-2) cancer cells treated with 50 μM Coenzyme Q10, 100 μM Coenzyme Q10, or the IC50 of Coenzyme Q10 for each cell line.

Data set [4] relates to tumor infiltrating lymphocytes (TILs) in murine Pan02 pancreatic tumors. Put plainly: CD8 IHC pathological scoring of tumor infiltrating lymphocytes in Pan02 tumors. Type of data set: in vivo, mouse. As to the method:
Tumor samples from mice with murine Pan02 tumors treated with different doses of Coenzyme Q10 were analyzed for the presence of tumor infiltrating lymphocytes (TILs). C57B1/6 female mice were inoculated with 3×10^7 Pan02 cells. When tumors reached a mean volume of 100 mm^3, animals were randomized into four groups and treated with vehicle control or Coenzyme Q10 (25, 50 or 100 mg/kg) twice daily for 21 days. At the end of the study, tumors were removed and subjected to IHC analysis for Tumor Infiltrating Lymphocytes (TILs) with CD8 staining. All slides were subjected to a pathological scoring. […] As shown in FIGS. 29A and 29B, Coenzyme Q10 increased TILs in a dose-dependent manner.

Data set [5] has as its system murine Pan02 pancreatic cancer cells. Description: Pan02 pancreatic tumor growth in C57BL/6 mice. To be noted: Day 21. Type of data set: in vivo, mouse. The method, then: C57BL/6 mice were implanted with murine Pan02 pancreatic cancer cells and treated with different doses of Coenzyme Q10 to evaluate the effects of Coenzyme Q10 on tumor growth. C57B1/6 female mice were inoculated with 3×10^7 Pan02 cells. When tumors reached a mean volume of 100 mm^3, animals were randomized into four groups and treated with vehicle control or Coenzyme Q10 (25, 50 or 100 mg/kg) by intraperitoneal (i.p.) injection twice daily for 21 days. Tumor volume was measured twice per week.

The test system of data set [6] is PD-1 on CD3 positive T cells within Balb/c PBMCs. Put plainly: PD-1 surface expression on murine CD3 positive T cells. The note with it: 0-800 μM, 24 hours, mean fluorescence intensity. Type of data set: cell-based, mouse. The method, then: PD-1 surface expression on CD3 positive T cells within PHA stimulated or unstimulated Balb/c PBMCs was also evaluated. Cells were treated with Coenzyme Q10 (0, 12.5, 50, 200, 400 or 800 μM) for 24 hours and PD-1 expression was determined by gating live CD3 positive T cells. Mean fluorescence intensity values were evaluated in histogram plots for PD-1. Two experiments using two different pools of Balb/c PBMCs and one experiment using C57B1/6 PBMCs were conducted.

The mark [7] stands for this setting: 25 mg/kg twice daily for 21 days.
Where [8] appears, read: 50 mg/kg twice daily for 21 days.
Where [9] appears, read: 100 mg/kg twice daily for 21 days.

The term IC50 denotes the point on the concentration scale where inhibition reaches its midpoint.

Take `COC1=C(OC)C(=O)C(C/C=C(\C)CC/C=C(\C)CC/C=C(\C)CC/C=C(\C)CC/C=C(\C)CC/C=C(\C)CC/C=C(\C)CC/C=C(\C)CC/C=C(\C)CCC=C(C)C)=C(C)C1=O` [Coenzyme Q10]: the figures for the 50% inhibitory concentration (IC50) (in data set [1]; in the data set on CT26 colon cancer cells; in data set [2]) were 1360 µM, 1910 µM and 237 µM, respectively. The “T cell viability (total, cytotoxic and helper T cells)” value with human PBMCs (T cells) was “increased”. Besides, in the data set with murine Balb/c PBMCs, the “Frequency of PD-1 negative CD3 positive T cells” value is “increased”. Further, the “PD1, PD-L1 and PD-L2 mRNA expression, other treatment groups” value in data set [3] was “no significant differences”. In addition, the “Percentage of mice with TIL levels Higher than Control” value in data set [4] (setting [7]) is 40%; in data set [4] (setting [8]) it was 42.9%; in [4] (setting [9]) it was 55.2%. Further, the results for the “Percentage of mice with TIL levels Lower than Control” value in data set [4] (setting [7]), in data set [4] (setting [8]) and in [4] (setting [9]) were 10%, 28.6% and 33.3%, respectively. For the same compound, the “Percentage of mice with TIL levels Similar to Control” value in [4] (setting [7]) came to 50%; in data set [4] (setting [8]), 28.6%; in [4] (setting [9]), 11.1%. For the same compound, in data set [4] (25, 50 or 100 mg/kg twice daily for 21 days, dose-dependent), the “Tumor infiltrating lymphocytes (TILs) in tumors” value is listed as “increased”. Besides, the “Percentage of Tumor Growth Inhibition” value in data set [5] (25 mg/kg i.p. twice daily, p=0.2583 to control) was determined as 7%; in [5] (50 mg/kg i.p. twice daily, p=0.1255 to control), 19%; in data set [5] (100 mg/kg i.p. twice daily, p=0.0529 to control), 26%. Besides, in [6], the “PD-1 expression of PD-1 negative gated CD3+ T cells” value was “does not affect”. Further, the “PD-1 levels on PD-1 high expressing gated CD3+ T cells” value in [6] was “increased”.
